# Results reported in paper PMC10529912 (European journal of medicinal chemistry, 2023).
# Where two headings read alike, the source gives them in different places.
# How the values were obtained:
# [1] = system: SARS-CoV-2 (isolate USA WA1/2020); format: cell-based; conditions: read-out: EC50 (antiviral); Calu-3 cells, MOI 0.5, 48 hours
# SARS-CoV-2 Mpro = SARS-CoV-2 Mpro (Severe acute respiratory syndrome coronavirus 2, UniProt P0DTD1); test: Mpro enzyme kinetics, Morrison plot Ki determination; format: biochemical
# [2] = biological target: SARS-CoV-2 main protease (Mpro) (Severe acute respiratory syndrome coronavirus 2, UniProt P0DTD1); test: SARS-CoV-2 Mpro FRET enzymatic assay; format: biochemical
Compound,IC50 [2],other results
"N-([1,1’-biphenyl]-4-yl)-2-cyano-N-((S)-2-oxo-2-(((S)-1-phenylethyl)amino)-1-(pyridin-3-yl)ethyl)acetamide [Jun10541R]",,"EC50 [1]: 2920 nM; cytotoxicity to Calu-3 cells (Calu-3 cells): not cytotoxic; Ki (SARS-CoV-2 Mpro; Morrison equation fit, 20 μM FRET substrate, no preincubation): 345 nM"
"CCCC#CC(=O)N(c1ccc(-c2ccccc2)cc1)C(C(=O)N[C@@H](C)c1ccccc1)c1cccnc1 (stereo partly drawn) [Jun10923, N-([1,1’-biphenyl]-4-yl)-N-(2-oxo-2-(((S)-1-phenylethyl)amino)-1-(pyridin-3-yl)ethyl)hex-2-ynamide]",2510 nM,
"COc1ccc(/C=C(\C#N)C(=O)N(c2ccc(-c3ccccc3)cc2)C(C(=O)N[C@@H](C)c2ccccc2)c2cccnc2)cc1 (stereo partly drawn) [Jun10963R, (E)-N-([1,1’-biphenyl]-4-yl)-2-cyano-3-(4-methoxyphenyl)-N-((S)-2-oxo-2-(((S)-1-phenylethyl)amino)-1-(pyridin-3-yl)ethyl)acrylamide]",560 nM,Ki (SARS-CoV-2 Mpro): 573 nM
"C[C@H](NC(=O)C(c1cccnc1)N(C(=O)C#CC(C)(C)C)c1ccc(-c2ccccc2)cc1)c1ccccc1 (stereo partly drawn) [Jun10925, N-([1,1’-biphenyl]-4-yl)-4,4-dimethyl-N-(2-oxo-2-(((S)-1-phenylethyl)amino)-1-(pyridin-3-yl)ethyl)pent-2-ynamide]",> 20000 nM,
"COc1ccc(/C=C(\C#N)C(=O)N(c2ccc(-c3ccccc3)cc2)C(C(=O)N[C@@H](C)c2ccccc2)c2cccnc2)cc1 (stereo partly drawn) [Jun10963S, (E)-N-([1,1’-biphenyl]-4-yl)-2-cyano-3-(4-methoxyphenyl)-N-((R)-2-oxo-2-(((S)-1-phenylethyl)amino)-1-(pyridin-3-yl)ethyl)acrylamide]",> 20000 nM,
"C#CC(=O)N(c1ccc(-c2ccccc2)cc1)C(C(=O)N[C@@H](C)c1ccccc1)c1cccnc1 (stereo partly drawn) [Jun10221R, N-([1,1’-biphenyl]-4-yl)-N-((S)-2-oxo-2-(((S)-1-phenylethyl)amino)-1-(pyridin-3-yl)ethyl)propiolamide]",20 nM,
